Data reported in publication PMC9851200, “Multiparameter phenotypic screening for endogenous TFEB and TFE3 translocation identifies novel chemical series modulating lysosome function” (Autophagy, 2022).

Experiments:
[1] = target: MINK1/MINK (Homo sapiens, UniProt Q8N4C8); assay type: binding
[2] = tested on: TFEB; assay: Cellular fractionation and western blot of nuclear/cytoplasmic TFEB; assay type: cell-based; settings: nuclear/cytoplasmic TFEB ratio, western blot
Procedure: Cells were washed with cold PBS (ThermoFisher Scientific/Gibco, 10,010–015) and lysed in RIPA buffer (0.5% Triton X-100, 10 mM Tris/HCl, pH 8.0, 1 mM EDTA (Sigma Aldrich, E6511), 0.5 mM EGTA (Sigma Aldrich, E3889), 0.1% sodium dodecyl sulfate [SDS], 0.02% sodium deoxycholate (Sigma Aldrich, D6750), and 140 mM NaCl (Sigma Aldrich, S9625) supplemented with protease-inhibitor cocktail (Sigma Aldrich/Roche, 4,693,132,001) and phosphatase inhibitors (Roche/Sigma Aldrich, 4,906,845,001) for 30 min at 4°C. The lysates were centrifuged at 13,000 g for 15 min and the supernatants collected. Protein concentration was quantified using BCA reagent (Thermofisher Scientific, 23,252) and 4× SDS Laemmli buffer was added. The samples were boiled at 95°C for 5 min before SDS-polyacrylamide gel electrophoresis (SDS-PAGE) using Mini-PROTEAN® Precast Gels (Bio-Rad, 4,568,094). Ten micrograms of protein per lane were separated by SDS/PAGE and transferred to a PVDF membrane using the Trans-Blot Turbo Transfer System (Bio-Rad, Hercules, CA, USA). […] Nuclear and cytoplasmic fractions were assessed with a LMNA/lamin A/C antibody (Santa Cruz Biotechnology, sc-7292) or GAPDH antibody (Abcam, ab9484), respectively.
Figure S5. […] (C) The levels of nuclear/cytoplasmic TFEB were quantified and presented as a ratio. […]

[3] = tested on: CLEAR genes; assay: RT-qPCR of CLEAR gene expression; assay type: cell-based; settings: SH-SY5Y, 1 µM compound, 48 h
Procedure: We assessed autophagic flux by quantifying LC3-II levels using western blotting in compound-treated cells in the presence or absence of the lysosomal inhibitor bafilomycin A1. […] Given the lack of correlation between the ability of the compounds to upregulate CLEAR genes, and changes in LC3-II levels, the action of the compounds was therefore independent of autophagic flux. SH-SY5Y cells were treated with compounds in 12-well or 24-well plates (Corning Costar, […]). Cell pellets were harvested and RNA was extracted using the RNeasy Mini Kit (QIAGEN, 74,104) according to manufacturer's instructions. cDNA was generated from 500 ng RNA using Superscript III Reverse Transcriptase (Thermofisher Scientific, 18,080,085). Expression of the CLEAR genes CTSD, HEXA, LAMP1, CLCN7, ATP6V0A1, SQSTM1, UVRAG and GABARAP were assessed using Fast SYBR Green Master Mix standard protocol (Thermofisher Scientific, 4,309,155), on a StepOnePlusTM Real-Time PCR System (Applied biosystems, Waltham, MA, USA). Primer sequences are shown in Table S7A and were designed in Primer3 or by OriGene Technologies and validated in house for efficiency and specificity.

[4] = tested on: SRPK1, SRPK2; assay: KiNativ in-cell kinase binding, SRPK1, SRPK2; settings: 2 µM
Source text: (§1) As KINOMEscan is an in vitro assay, and as different cell types have variable kinase expression profiles we sought to determine the kinase binding profile in our SH-SY5Y TFEB-relocalization cell model. […] Bound kinases were pulled down and analyzed by mass spectrometry to determine the in situ kinase binding profile for each compound.

[5] = target: T1, TLK1 (Homo sapiens, UniProt Q9UKI8); assay: KiNativ in-cell kinase binding, TLK1; settings: SH-SY5Y cells, Labeling Site Lys2
T1 construct: endogenous in cells; host or cells: SH-SY5Y
Source text: as §1

[6] = target: T2, PRKD2 (Homo sapiens, UniProt Q9BZL6); assay: KiNativ in-cell kinase binding, PRKD2; design: endogenous in cells; host or cells: SH-SY5Y
T2 sequence (Q9BZL6 1-878): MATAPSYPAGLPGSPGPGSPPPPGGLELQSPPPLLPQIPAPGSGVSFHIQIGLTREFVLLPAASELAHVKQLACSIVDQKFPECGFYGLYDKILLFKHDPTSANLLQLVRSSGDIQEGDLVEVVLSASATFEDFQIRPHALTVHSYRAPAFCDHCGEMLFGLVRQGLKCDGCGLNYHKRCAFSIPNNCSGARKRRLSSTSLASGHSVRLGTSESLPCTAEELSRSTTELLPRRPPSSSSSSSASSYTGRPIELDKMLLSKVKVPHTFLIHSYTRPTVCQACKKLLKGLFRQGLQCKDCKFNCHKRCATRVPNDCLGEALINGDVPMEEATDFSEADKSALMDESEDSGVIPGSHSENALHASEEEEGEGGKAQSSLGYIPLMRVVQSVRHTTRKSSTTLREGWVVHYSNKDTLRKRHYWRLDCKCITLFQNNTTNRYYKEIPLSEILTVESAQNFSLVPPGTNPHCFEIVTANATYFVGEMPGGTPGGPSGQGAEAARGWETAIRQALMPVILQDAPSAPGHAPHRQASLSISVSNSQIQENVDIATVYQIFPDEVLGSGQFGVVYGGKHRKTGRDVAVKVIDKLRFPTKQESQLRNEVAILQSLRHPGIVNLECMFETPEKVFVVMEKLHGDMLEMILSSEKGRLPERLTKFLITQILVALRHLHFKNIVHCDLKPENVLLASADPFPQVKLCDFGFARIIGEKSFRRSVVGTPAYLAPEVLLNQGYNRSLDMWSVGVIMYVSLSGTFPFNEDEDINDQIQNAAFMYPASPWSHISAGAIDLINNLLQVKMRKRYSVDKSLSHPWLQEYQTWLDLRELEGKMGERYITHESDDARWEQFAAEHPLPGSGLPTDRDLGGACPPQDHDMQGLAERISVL
Source text: as §1

T1 sequence (Q9UKI8 whole entry): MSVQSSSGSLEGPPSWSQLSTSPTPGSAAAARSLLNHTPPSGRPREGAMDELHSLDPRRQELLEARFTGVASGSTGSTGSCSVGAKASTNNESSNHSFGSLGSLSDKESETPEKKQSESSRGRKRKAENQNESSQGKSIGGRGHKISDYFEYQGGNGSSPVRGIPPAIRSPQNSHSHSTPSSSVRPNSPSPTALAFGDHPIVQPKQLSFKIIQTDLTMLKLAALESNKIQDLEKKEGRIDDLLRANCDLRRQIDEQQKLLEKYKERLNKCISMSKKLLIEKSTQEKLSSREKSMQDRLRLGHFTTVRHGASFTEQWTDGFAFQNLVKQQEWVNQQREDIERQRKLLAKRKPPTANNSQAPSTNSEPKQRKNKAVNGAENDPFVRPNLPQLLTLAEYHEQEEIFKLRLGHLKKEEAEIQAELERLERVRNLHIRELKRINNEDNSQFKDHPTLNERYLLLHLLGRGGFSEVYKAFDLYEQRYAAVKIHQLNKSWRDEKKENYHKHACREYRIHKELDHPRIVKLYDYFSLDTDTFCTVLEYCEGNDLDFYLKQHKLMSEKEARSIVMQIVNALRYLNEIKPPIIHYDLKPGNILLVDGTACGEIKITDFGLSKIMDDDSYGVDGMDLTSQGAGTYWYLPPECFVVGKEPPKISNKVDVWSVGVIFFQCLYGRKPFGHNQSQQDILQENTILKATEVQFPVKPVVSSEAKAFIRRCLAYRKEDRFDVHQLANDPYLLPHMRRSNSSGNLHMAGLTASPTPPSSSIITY
Sequence of MINK1/MINK (Q8N4C8 whole entry): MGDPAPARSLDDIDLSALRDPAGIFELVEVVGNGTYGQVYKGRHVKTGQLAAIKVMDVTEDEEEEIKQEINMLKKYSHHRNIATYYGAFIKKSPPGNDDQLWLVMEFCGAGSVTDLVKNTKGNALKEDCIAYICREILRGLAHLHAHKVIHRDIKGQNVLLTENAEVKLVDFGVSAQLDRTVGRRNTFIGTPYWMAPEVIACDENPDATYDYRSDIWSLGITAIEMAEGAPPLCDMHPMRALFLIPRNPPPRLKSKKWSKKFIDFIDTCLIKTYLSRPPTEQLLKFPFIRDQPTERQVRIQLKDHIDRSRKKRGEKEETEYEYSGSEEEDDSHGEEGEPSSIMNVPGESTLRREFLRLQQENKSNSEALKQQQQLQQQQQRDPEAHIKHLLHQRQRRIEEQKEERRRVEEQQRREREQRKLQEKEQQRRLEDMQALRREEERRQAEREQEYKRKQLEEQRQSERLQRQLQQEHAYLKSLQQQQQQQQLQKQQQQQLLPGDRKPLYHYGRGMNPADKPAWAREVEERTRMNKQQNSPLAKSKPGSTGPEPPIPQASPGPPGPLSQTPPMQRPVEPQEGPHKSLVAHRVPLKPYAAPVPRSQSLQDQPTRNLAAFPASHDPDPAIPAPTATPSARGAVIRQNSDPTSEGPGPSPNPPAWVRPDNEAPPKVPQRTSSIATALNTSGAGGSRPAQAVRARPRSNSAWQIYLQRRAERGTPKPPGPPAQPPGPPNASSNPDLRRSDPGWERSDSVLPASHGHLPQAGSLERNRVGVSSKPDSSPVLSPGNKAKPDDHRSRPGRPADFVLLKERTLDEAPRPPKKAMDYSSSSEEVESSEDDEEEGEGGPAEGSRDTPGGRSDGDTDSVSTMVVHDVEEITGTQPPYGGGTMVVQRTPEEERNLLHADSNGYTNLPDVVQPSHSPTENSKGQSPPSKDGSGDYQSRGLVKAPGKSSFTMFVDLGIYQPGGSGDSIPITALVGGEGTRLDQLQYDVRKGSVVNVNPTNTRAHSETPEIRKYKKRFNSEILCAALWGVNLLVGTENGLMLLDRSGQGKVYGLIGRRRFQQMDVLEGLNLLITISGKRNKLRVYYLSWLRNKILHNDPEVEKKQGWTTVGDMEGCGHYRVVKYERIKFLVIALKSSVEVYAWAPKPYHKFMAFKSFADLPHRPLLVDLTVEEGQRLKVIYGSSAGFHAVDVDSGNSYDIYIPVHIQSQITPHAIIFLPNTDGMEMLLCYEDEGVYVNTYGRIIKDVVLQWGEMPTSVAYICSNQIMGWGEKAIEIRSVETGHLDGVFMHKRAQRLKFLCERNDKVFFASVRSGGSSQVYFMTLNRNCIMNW

With `Cc1cccc(-c2nc(N(C)c3ccc4ncsc4c3)c3ccccc3n2)n1` [NK-161] the “KINOMEscan MINK1/MINK” value [1] was 22.
In the case of `Cc1cccc(-c2nc(Nc3ccc4ncsc4c3)c3ccccc3n2)n1` [NK140], the “Translocation of TFEB to the nucleus, cellular fractionation (in words)” value [2] is reported as “increased translocation of TFEB to the nucleus”, the “CLEAR gene expression (in words)” value [3] is reported as “upregulation of a number of CLEAR genes” and the “KiNativ in-cell binding, % Inhibition, SRPK1, SRPK2” value [4] is reported as 80.8%. The inhibition at 2 µM [5] was 48.9%, the inhibition at 2 µM ([6]; 2µM, SH-SY5Y cells, Labeling Site Lys1, […]) was 51.7% and the “KiNativ binding of PRKD2 (in words)” value ([6]; SH-SY5Y cells treated 2 h) was “bound”.
